Consider 28 compounds from patent publication US11524966B1 (Valo Early Discovery, Inc., priority 2017, dated 2022).

For the first assay, the target named is T1, USP25 (USP25-His6, Boston Biochem E-546) (Homo sapiens, UniProt Q9UHP3).
T1 construct: His6; purchased Boston Biochem E-546
T1 sequence (Q9UHP3 1-1055): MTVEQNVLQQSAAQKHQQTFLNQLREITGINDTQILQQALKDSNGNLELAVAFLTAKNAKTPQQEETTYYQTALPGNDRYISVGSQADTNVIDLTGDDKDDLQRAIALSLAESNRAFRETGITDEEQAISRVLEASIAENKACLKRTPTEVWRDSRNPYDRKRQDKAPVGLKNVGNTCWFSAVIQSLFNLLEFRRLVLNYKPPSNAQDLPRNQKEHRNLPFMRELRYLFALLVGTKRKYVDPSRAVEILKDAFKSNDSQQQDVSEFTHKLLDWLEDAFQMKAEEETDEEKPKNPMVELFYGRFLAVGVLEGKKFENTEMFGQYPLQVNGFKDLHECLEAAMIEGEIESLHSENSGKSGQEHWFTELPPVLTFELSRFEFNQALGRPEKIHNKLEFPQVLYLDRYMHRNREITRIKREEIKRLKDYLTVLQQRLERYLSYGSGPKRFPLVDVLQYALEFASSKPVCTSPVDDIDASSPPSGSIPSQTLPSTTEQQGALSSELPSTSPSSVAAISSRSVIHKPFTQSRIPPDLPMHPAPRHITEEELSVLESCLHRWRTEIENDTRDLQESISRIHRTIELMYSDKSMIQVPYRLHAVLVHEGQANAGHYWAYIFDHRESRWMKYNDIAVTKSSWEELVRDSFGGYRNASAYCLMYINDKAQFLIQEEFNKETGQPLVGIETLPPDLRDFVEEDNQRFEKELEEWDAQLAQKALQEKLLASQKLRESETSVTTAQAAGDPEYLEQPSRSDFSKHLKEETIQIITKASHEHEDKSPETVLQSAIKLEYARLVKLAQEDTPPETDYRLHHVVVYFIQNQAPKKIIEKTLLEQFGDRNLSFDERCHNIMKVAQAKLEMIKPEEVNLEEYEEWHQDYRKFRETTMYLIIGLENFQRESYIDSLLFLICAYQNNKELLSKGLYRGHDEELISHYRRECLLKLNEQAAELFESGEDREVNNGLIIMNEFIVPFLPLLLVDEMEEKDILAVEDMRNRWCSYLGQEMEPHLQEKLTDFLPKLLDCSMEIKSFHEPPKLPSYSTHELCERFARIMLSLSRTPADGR
The experiment in a line: Ubiquitin-Rhodamine 110 Assay for USP25 Activity, Example A-2. It is filed as biochemical. The settings on record: Ubiquitin-Rhodamine 110 assay, Example A-2; read-out: USP25 A-2 IC50 range. The gist of the method: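 Inhibition is quantified as IC50 by 4-parameter fit of fluorescence (485/535 nm) from Ub-Rh110 hydrolysis. Enzyme USP25-His6 at 75 pM with 30 min compound preincubation, then 25 nM substrate for 45 min at room temperature in pH 8.0 Tris buffer containing BME.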
For `Cc1ccc2c(N)c(C(=O)N[C@H]3CCc4cc(N5CCNCC5)cc(F)c4C3)sc2n1` (single isomer, unassigned) [Example 11-11], the IC50 was more than 2000 nM.

For `Cc1ccc2c(N)c(C(=O)N[C@H]3CCc4cc(N5CCN[C@H](CO)C5)ccc4C3)sc2n1` (single isomer, unassigned) [Example 7-8], the IC50 is more than 2000 nM.

`Cc1ccc2c(N)c(C(=O)N[C@H]3CCc4cc(N5CCN[C@@H](CO)C5)ccc4C3)sc2n1` (single isomer, unassigned) [Example 7-9]: the 50% inhibitory concentration (IC50) is more than 2000 nM.

Consider `Cc1ccc2c(N)c(C(=O)N[C@@H]3COc4cc(N5CCNCC5)cc(F)c4C3)sc2n1` [Example 10-5, (S)-3-amino-N-(5-fluoro-7-(piperazin-1-yl)chroman-3-yl)-6-methylthieno[2,3-b]pyridine-2-carboxamide], for which the concentration for half-maximal inhibition (IC50) is more than 2000 nM.

As to `Cc1cnc2c(N)c(C(=O)N[C@@H]3CCc4cc(N5CCNC[C@@H](O)C5)ccc4C3)sc2n1` (single isomer, unassigned) [Example 7-5], the IC50 lay within 200 to 2000 nM.

In the case of `Cc1ccc2c(N)c(C(=O)N[C@H]3COc4cc(N5CC6CNCC(C5)O6)cc(F)c4C3)sc2n1` [Example 10-6, N-((3R)-7-(9-oxa-3,7-diazabicyclo[3.3.1]nonan-3-yl)-5-fluorochroman-3-yl)-3-amino-6-methylthieno[2,3-b]pyridine-2-carboxamide], the IC50 was 50 to 200 nM.

On to `Cc1cnc2c(N)c(C(=O)N[C@@H]3CCc4cc(N5CC6CCC(C5)N6)cc(F)c4C3)sc2n1` (single isomer, unassigned) [Example 11-14], for which the IC50 was in the range of 200 to 2000 nM.

Regarding `Cc1cnc2c(N)c(C(=O)N[C@@H]3CCc4cc(N5CC6CCC(C5)N6)ccc4C3)sc2n1` (single isomer, unassigned) [Example 11-8], the IC50 is more than 2000 nM.

`Cc1ccc2c(N)c(C(=O)N[C@@H]3COc4cc(N5CCNCC5)ccc4[C@@H]3C)sc2n1` (single isomer, unassigned) [Example 11-18]: the IC50 is more than 2000 nM.

In the case of `[2H]C1([2H])NC([2H])([2H])C([2H])([2H])N(c2cc(F)c3c(c2)OC[C@H](NC(=O)c2sc4nc(C)ccc4c2N)C3)C1([2H])[2H]` [Example 10-4, (R)-3-amino-N-(5-fluoro-7-(piperazin-l-yl-2,2,3,3,5,5,6,6-d8)chroman-3-yl)-6-methylthieno[2,3-b]pyridine-2-carboxamide], the half-maximal inhibitory concentration (IC50) lay in the range of 50 to 200 nM.

Consider `CO[C@@H]1CN(c2cc(F)c3c(c2)OC[C@H](NC(=O)c2sc4nc(C)ccc4c2N)C3)C[C@H]1N` [Example 10-2, 3-amino-N-((R)-7-((3R,4R)-3-amino-4-methoxypyrrolidin-1-yl)-5-fluorochroman-3-yl)-6-methylthieno[2,3-b]pyridine-2-carboxamide], for which the IC50 was 200 to 2000 nM.

For `COc1ccc2c(N)c(C(=O)N[C@H]3COc4cc(N5CCNCC5)cc(F)c4C3)sc2n1` [Example 10-11, (R)-3-amino-N-(5-fluoro-7-(piperazin-1-yl)chroman-3-yl)-6-methoxythieno[2,3-b]pyridine-2-carboxamide], the IC50 lay within 50 to 200 nM.

`Cc1cnc2c(N)c(C(=O)N[C@H]3COc4cc(N5CCNCC5)cc(F)c4C3)sc2n1` [Example 10-10, (R)-7-amino-N-(5-fluoro-7-(piperazin-1-yl)chroman-3-yl)-3-methylthieno[2,3-b]pyrazine-6-carboxamide]: the half-inhibitory concentration (IC50) was 50 to 200 nM.

As for `Cc1ccc2c(N)c(C(=O)N[C@H]3COc4cc(O[C@H]5COC6(CNC6)C5)ccc4C3)sc2n1` (single isomer, unassigned) [Example 9-2], the IC50 fell in the range of 50 to 200 nM.

Regarding `Cc1ccc2c(N)c(C(=O)N[C@H]3COc4cc(C5(F)CCNCC5)ccc4C3)sc2n1` [Example 8-1, (R)-3-Amino-N-(7-(4-fluoropiperidin-4-yl)chroman-3-yl)-6-methylthieno[2,3-b]pyridine-2-carboxamide], the IC50 lay in the range of 50 to 200 nM.

In the case of `CCn1ccc2cc(C(=O)N[C@@H]3CCc4cc(N5CC6CCC(C5)N6)ccc4C3)cnc21` (single isomer, unassigned) [Example 11-10], the IC50 is 200 to 2000 nM.

Turning to `Cc1cc(C)c2c(N)c(C(=O)N[C@H]3COc4cc(N5CC6CC(C5)N6)cc(F)c4C3)sc2n1` [Example 10-7, N-((3R)-7-(3,6-diazabicyclo[3.1.1]heptan-3-yl)-5-fluorochroman-3-yl)-3-amino-4,6-dimethylthieno[2,3-b]pyridine-2-carboxamide], the IC50 fell in the range of 50 to 200 nM.

Staying with this assay, now noted: Ubiquitin-Rhodamine 110 assay, format Example A-2; read-out: USP25 A-2 IC50 range.
Consider `Cc1ccc2c(N)c(C(=O)N[C@H]3COc4cc(N5CC6CCC(C5)N6)c(F)c(F)c4C3)sc2n1` [Example 13-3, N-((3R)-7-(3,8-diazabicyclo[3.2.1]octan-3-yl)-5,6-difluorochroman-3-yl)-3-amino-6-methylthieno[2,3-b]pyridine-2-carboxamide], for which the IC50 is more than 2000 nM.

As to `Cc1ccc2c(N)c(C(=O)N[C@@H]3CCc4cc(N5CCNCC5)cnc4C3)sc2n1` (single isomer, unassigned) [Example 15-1], the IC50 is more than 2000 nM.

Regarding `CO[C@H]1CN(c2ccc3c(n2)CC[C@H](NC(=O)c2sc4nc(C)cc(C)c4c2N)C3)C[C@@H]1N` [Example 23-3, 3-amino-N-[(6S)-2-[(3S,4S)-3-amino-4-methoxypyrrolidin-1-yl]-5,6,7,8-tetrahydroquinolin-6-yl]-4,6-dimethylthieno[2,3-b]pyridine-2-carboxamide], the IC50 is more than 2000 nM.

In the case of `Cc1ccc2c(N)c(C(=O)N[C@@H]3COc4c(ccc(N5CCNCC5)c4Cl)C3)sc2n1` [Example 13-8, (S)-3-amino-N-(8-chloro-7-(piperazin-1-yl)chroman-3-yl)-6-methylthieno[2,3-b]pyridine-2-carboxamide], the IC50 was more than 2000 nM.

As for `Cc1ccc2c(N)c(C(=O)N[C@H]3COc4nc(N5CCNCC5)ccc4C3)sc2n1` [Example 19, (R)-3-Amino-6-methyl-N-(7-(piperazin-1-yl)-3,4-dihydro-2H-pyrano[2,3-b]pyridin-3-yl)thieno[2,3-b]pyridine-2-carboxamide], the IC50 lay within 200 to 2000 nM.

For the compound `Cc1ccc2c(N)c(C(=O)N[C@@H]3COc4cc(N5CCNCC5)c(Cl)cc4C3)sc2n1` (single isomer, unassigned) [Example 13-6], the IC50 was 50 to 200 nM.

As for `Cc1ccc2c(N)c(C(=O)N[C@H]3CCc4cc(N5CCNCC5)c(F)cc4C3)sc2n1` (single isomer, unassigned) [Example 21-8], the IC50 was more than 2000 nM.

With `Cc1ccc2c(N)c(C(=O)N[C@H]3COc4c(ccc(N5CCNCC5)c4Cl)C3)sc2n1` [Example 13_7, (R)-3-amino-N-(8-chloro-7-(piperazin-1-yl)chroman-3-yl)-6-methylthieno[2,3-b]pyridine-2-carboxamide], the IC50 fell in the range of 50 to 200 nM.

Regarding `Cc1ccc2c(N)c(C(=O)N[C@H]3CCc4c(F)c(N5CCNCC5)cc(F)c4C3)sc2n1` (single isomer, unassigned) [Example 22-1], the IC50 is more than 2000 nM.

On to `CO[C@H]1CN(c2ccc3c(n2)CC[C@H](NC(=O)c2sc4nc(C)ccc4c2N)C3)C[C@@H]1N` [Example 23-4, 3-amino-N-[(6S)-2-[(3S,4S)-3-amino-4-methoxypyrrolidin-1-yl]-5,6,7,8-tetrahydroquinolin-6-yl]-6-methylthieno[2,3-b]pyridine-2-carboxamide], for which the IC50 was more than 2000 nM.

For the compound `CO[C@H]1CN(c2ccc3c(n2)CC[C@@H](NC(=O)c2sc4nc(C)cnc4c2N)C3)C[C@@H]1N` (single isomer, unassigned) [Example 23-2], the IC50 is more than 2000 nM.

As a reminder, the IC50 is the concentration that gives 50% inhibition.
